In one assay the target is T1, 5-HT2A receptor (Homo sapiens, UniProt P28223).
T1 construct: host or cells: unnamed cell lines
The assay can be described thus: Calcium mobilization assay, agonist format, 5-HT2A receptor. The format is cell-based. The following applies: agonist mode, % activity relative to MAX control ligand (5-HT positive control), read-out: 5-HT2A agonist efficacy @ 1 μM. As to the method:
(§1) • Protocol: in vitro testing at select 5-hydroxytryptamine (5-HT; serotonin) receptors was conducted.
(§2) Assay Design: Calcium Mobilization
(§3) • 1. Cell lines were expanded from freezer stocks according to standard procedures. • 2. Cells were seeded in a total volume of 20 μL into black-walled, clear-bottom, Poly-D-lysine coated 384-well microplates and incubated at 37° C. for the appropriate time prior to testing.
(§4) • 1. Assays were performed in 1×Dye Loading Buffer consisting of 1× Dye, 1× Additive A and 2.5 mM Probenecid in HBSS/20 mM Hepes. Probenicid was prepared fresh. • 2. Cells were loaded with dye prior to testing. Media was aspirated from cells and replaced with 20 μL Dye Loading Buffer. • 3. Cells were incubated for 30-60 minutes at 37° C.
(§5) • 1. For agonist determination, cells were incubated with sample to induce response. • 2. After dye loading, cells were removed from the incubator and 10 μL HBSS/20 mM Hepes was added. 3× vehicle was included in the buffer when performing agonist dose curves to define the EC80 for subsequent antagonist assays. Cells were incubated for 30 minutes at room temperature in the dark to equilibrate plate temperature. • 3. Intermediate dilution of sample stocks was performed to generate 4× sample in assay buffer. • 4. Compound agonist activity was measured on a FLIPR Tetra (MDS). Calcium mobilization was monitored for 2 minutes and 10 μL 4× sample in HBSS/20 mM Hepes was added to the cells 5 seconds into the assay.
(§6) • 1. Compound activity was analyzed using CBIS data analysis suite (ChemInnovation, CA). • 2. For agonist mode assays, percentage activity is calculated using the following formula:
(§7) % Activity=100%×(mean RFU of test sample−mean RFU of vehicle control)/(mean MAX RFU control ligand −mean RFU of vehicle control). • 3. For positive allosteric mode assays, percentage modulation was calculated using the following formula: […]

Another assay addresses T2, 5-HT2B receptor (Homo sapiens, UniProt P41595).
T2 construct: host or cells: unnamed cell lines
The assay can be described thus: Calcium mobilization assay, agonist format, 5-HT2B receptor. The format is cell-based. To be noted: agonist mode, % activity relative to MAX control ligand (5-HT positive control), read-out: 5-HT2B agonist efficacy @ 1 μM. As to the method: as §1, §2, §3, §4, §5, §6, §7
For orientation: Calcium flux is commonly read through the fluorescence of an indicator in the cells.

T2 sequence (P41595 whole entry): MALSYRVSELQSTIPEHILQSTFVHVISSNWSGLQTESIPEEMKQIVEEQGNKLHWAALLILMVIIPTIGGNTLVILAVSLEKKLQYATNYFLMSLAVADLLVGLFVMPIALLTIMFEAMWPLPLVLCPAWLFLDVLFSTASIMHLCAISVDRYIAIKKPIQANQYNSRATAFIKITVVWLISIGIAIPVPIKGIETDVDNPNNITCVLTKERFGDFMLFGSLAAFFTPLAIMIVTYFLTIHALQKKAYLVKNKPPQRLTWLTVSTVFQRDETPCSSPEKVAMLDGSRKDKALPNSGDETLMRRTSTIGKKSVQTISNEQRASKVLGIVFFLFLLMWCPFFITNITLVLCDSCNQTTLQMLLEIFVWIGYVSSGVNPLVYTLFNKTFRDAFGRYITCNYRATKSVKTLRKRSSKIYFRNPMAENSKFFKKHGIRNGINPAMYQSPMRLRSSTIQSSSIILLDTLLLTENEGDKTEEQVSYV
T1 sequence (P28223 whole entry): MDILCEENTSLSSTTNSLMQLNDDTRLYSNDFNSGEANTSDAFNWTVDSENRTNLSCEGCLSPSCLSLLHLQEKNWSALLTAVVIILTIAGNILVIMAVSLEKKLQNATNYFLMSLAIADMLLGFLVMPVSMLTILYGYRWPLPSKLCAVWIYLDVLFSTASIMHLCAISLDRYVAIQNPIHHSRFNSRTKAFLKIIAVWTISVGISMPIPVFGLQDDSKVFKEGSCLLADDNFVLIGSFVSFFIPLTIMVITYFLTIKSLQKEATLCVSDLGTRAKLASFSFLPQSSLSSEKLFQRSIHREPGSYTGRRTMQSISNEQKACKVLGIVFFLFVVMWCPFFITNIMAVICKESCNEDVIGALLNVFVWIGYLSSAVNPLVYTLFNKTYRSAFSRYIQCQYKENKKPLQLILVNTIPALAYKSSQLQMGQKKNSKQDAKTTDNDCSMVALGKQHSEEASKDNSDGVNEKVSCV

As to `CN(CCn1ccc2ccc(F)cc21)CCS(C)(=O)=O` [2-(6-Fluoroindol-1-yl)-N-methyl-N-(2-methylsulfonylethyl)ethanamine], the activation at 1 µM was -1.2% at 5-HT2A receptor and -1.3% on 5-HT2B receptor.
For `CC1(O)CCN(CCc2c[nH]c3cc(F)c(F)cc23)C1` (stereo not shown) [1-[2-(5,6-difluoro-1H-indol-3-yl)ethyl]-3-methyl-pyrrolidin-3-ol], the activation at 1 µM at 5-HT2A receptor is 1.9%; on 5-HT2B receptor it was -1%.
For the compound `OC1CCN(CCn2ccc3cc(F)c(F)cc32)C1` (stereo not shown) [1-[2-(5,6-Difluoroindol-1-yl)ethyl]pyrrolidin-3-ol], the values for the activation at 1 µM on 5-HT2A receptor and at 5-HT2B receptor were 2% and -0.7%, respectively.
With `OC1CCN(CCn2ccc3cc(F)ccc32)C1` (stereo not shown) [1-[2-(5-Fluoroindol-1-yl)ethyl]pyrrolidin-3-ol], the activation at 1 µM on 5-HT2A receptor is -0.2%; at 5-HT2B receptor it was -1.2%.
In the case of `CN(CCc1c[nH]c2ccc(F)cc12)CCS(C)(=O)=O` [2-(5-fluoro-1H-indol-3-yl)-N-methyl-N-(2-methylsulfonylethyl)ethanamine], the activation at 1 µM at 5-HT2A receptor was 27.3%; at 5-HT2B receptor it was -0.5%.
In the case of `OC1CCN(CCc2c[nH]c3ccc(F)cc23)C1` (stereo not shown) [1-[2-(5-fluoro-1H-indol-3-yl)ethyl]pyrrolidin-3-olethanamine], the activation at 1 µM on 5-HT2A receptor was 46%; on 5-HT2B receptor, -0.7%.
Consider `COc1ccc2c3c([nH]c2c1)CCN(C)CC3` [TBG, 8-methoxy-3-methyl-1,2,3,4,5,6-hexahydroazepino[4,5-b]indole, reference compound], for which the results for the activation at 1 µM at 5-HT2A receptor and on 5-HT2B receptor were 18.2% and -2.2%, respectively.
As for `CN(CCn1ccc2cc(F)c(F)cc21)CCS(C)(=O)=O` [2-(5,6-Difluoroindol-1-yl)-N-methyl-N-(2-methylsulfonylethyl)ethanamine], the results for the activation at 1 µM on 5-HT2A receptor and at 5-HT2B receptor were -0.5% and -1.3%, respectively.
In the same order, the values of `CN(CCO)CCc1c[nH]c2ccc(F)cc12` [2-[2-(5-Fluoro-1H-indol-3-yl)ethyl-methyl-amino]ethanol] are 47.1% and 1.2%.
In the case of `COc1ccc2c3c([nH]c2c1)CCNCC3` [8-methoxy-1,2,3,4,5,6-hexahydroazepino[4,5-b]indole, reference compound], the results for the activation at 1 µM at 5-HT2A receptor and on 5-HT2B receptor were 71.7% and -0.8%, respectively.
Turning to `CC1(O)CCN(CCc2c[nH]c3cc(F)ccc23)C1` (stereo not shown) [1-[2-(6-fluoro-1H-indol-3-yl)ethyl]-3-methyl-pyrrolidin-3-ol], the activation at 1 µM is -0.3% on 5-HT2A receptor and -1.1% at 5-HT2B receptor.
On to `OC1CCN(CCn2ccc3ccc(F)cc32)C1` (stereo not shown) [1-[2-(6-Fluoroindol-1-yl)ethyl]pyrrolidin-3-ol], for which the activation at 1 µM is 2.5% on 5-HT2A receptor and -2.8% at 5-HT2B receptor.
In the case of `CN(CCn1ccc2cc(F)ccc21)CCS(C)(=O)=O` [2-(5-Fluoroindol-1-yl)-N-methyl-N-(2-methylsulfonylethyl)ethanamine], the values for the activation at 1 µM on 5-HT2A receptor and on 5-HT2B receptor were -0.8% and -2.7%, respectively.
In the same order, the values of `CN(CCO)CCn1ccc2cc(F)c(F)cc21` [2-[2-(5,6-Difluoroindol-1-yl)ethyl-methyl-amino]ethanol] are 6.2% and 0.1%.
`CC1(O)CCN(CCn2ccc3ccc(F)cc32)C1` (stereo not shown) [1-[2-(6-Fluoroindol-1-yl)ethyl]-3-methyl-pyrrolidin-3-ol]: the activation at 1 µM at 5-HT2A receptor is 0%; on 5-HT2B receptor it was -1.3%.
`CC1(O)CCN(CCc2c[nH]c3ccc(F)cc23)C1` (stereo not shown) [1-[2-(5-fluoro-1H-indol-3-yl)ethyl]-3-methyl-pyrrolidin-3-ol]: the activation at 1 µM on 5-HT2A receptor is 7.5%; at 5-HT2B receptor it was -1.5%.
In the same order, the values of `CN(CCO)CCn1ccc2cc(F)ccc21` [2-[2-(5-Fluoroindol-1-yl)ethyl-methyl-amino]ethanol] are -0.2% and -1.4%.
Turning to `CC1(O)CCN(CCn2ccc3cc(F)c(F)cc32)C1` (stereo not shown) [1-[2-(5,6-Difluoroindol-1-yl)ethyl]-3-methyl-pyrrolidin-3-ol], the activation at 1 µM on 5-HT2A receptor is -0.1%; at 5-HT2B receptor it was -2.5%.
As for `CC1(O)CCN(CCn2ccc3cc(F)ccc32)C1` (stereo not shown) [1-[2-(5-Fluoroindol-1-yl)ethyl]-3-methyl-pyrrolidin-3-ol], the activation at 1 µM at 5-HT2A receptor was -0.3%; at 5-HT2B receptor, -1.1%.
Regarding `CN(CCO)CCn1ccc2ccc(F)cc21` [2-[2-(6-Fluoroindol-1-yl)ethyl-methyl-amino]ethanol], the figures for the activation at 1 µM on 5-HT2A receptor and at 5-HT2B receptor were 8.3% and 0.2%, respectively.

The record behind these values is patent US20250136548A1, “FUNCTIONALIZED ALKYLAMINES” (Terran Biosciences Inc., priority 2022, published 2025).
